Several values for one entry are separate records, joined by “and”; a condition that tells them apart may be missing. Equal entries are not always repeated. Values belong to the compound of their own block, whether it stands above or below them.
How the values were obtained:
[1] = target: T1, CD16a158F (Homo sapiens, UniProt P08637); assay: Microscale Thermophoresis; assay type: binding; parameters: purchased Acro Biosystems CDA-H82E8; conditions: read-out: MST-CD16a158F KD
Experimental: Target proteins (poly-histidine tagged, 600 nM) were fluorescently labeled combination with an equal volume of dye (200 nM, His-Tag labeling kit RED-tris-NTA NanoTemper: MO-L008) PBST. The mixture rotated in the dark for 45 min before being spun down at 12000 rpm for 15 min to remove uncomplexed material. The fluorescence of the removed supernatant was adjusted to for a test concentration of 40-80 nM (2× the final measured). Test ligands were prepared across a 12-point dilution series in a 96-well PCR plate at a volume of 20 uL at 2× the concentration desired for testing (0.2% BSA in PBST). The dilution series was then combined with an equal volume of the labeled target at 2× the concentration desired for testing. Capillaries were added to the wells of the combined target/ligand complex and measured by MST. Measurements were taken using a Nanotemper Monolith NT.115, and the data was analyzed using NanoTemper MO.Control software.

[2] = target: T1, CD16a158F; assay: Biotin ELISA, interaction with various receptors (Example 55); assay type: binding; conditions: three replicate values per compound
Method in brief: (§1)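 Capture surface: neutravidin at 5 μg/ml, BSA-blocked, carrying biotinylated ligand diluted in PBSTB with 1 h incubations at 25° C and gentle shaking. Unoccupied sites were blocked using biotin at 100 μM. Read-out was luminescence from HRP substrate.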

[3] = target: T2, CD3ed (Homo sapiens, UniProt P04234+P07766); assay: as above; assay type: binding; conditions: three replicate values per compound
T2 sequence (P07766 23-126 limits assumed): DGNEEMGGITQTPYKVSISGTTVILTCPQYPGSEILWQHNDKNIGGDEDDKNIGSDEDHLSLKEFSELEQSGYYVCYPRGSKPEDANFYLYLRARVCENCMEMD
T2 sequence (P04234 22-105 limits assumed): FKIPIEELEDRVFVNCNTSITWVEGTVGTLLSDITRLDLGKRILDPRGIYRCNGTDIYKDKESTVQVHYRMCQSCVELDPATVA
Method in brief: as §1

[4] = target: CD64 (Homo sapiens, UniProt P12314); assay: as above; assay type: binding; conditions: three replicate values per compound
CD64, sequence (P12314 16-374): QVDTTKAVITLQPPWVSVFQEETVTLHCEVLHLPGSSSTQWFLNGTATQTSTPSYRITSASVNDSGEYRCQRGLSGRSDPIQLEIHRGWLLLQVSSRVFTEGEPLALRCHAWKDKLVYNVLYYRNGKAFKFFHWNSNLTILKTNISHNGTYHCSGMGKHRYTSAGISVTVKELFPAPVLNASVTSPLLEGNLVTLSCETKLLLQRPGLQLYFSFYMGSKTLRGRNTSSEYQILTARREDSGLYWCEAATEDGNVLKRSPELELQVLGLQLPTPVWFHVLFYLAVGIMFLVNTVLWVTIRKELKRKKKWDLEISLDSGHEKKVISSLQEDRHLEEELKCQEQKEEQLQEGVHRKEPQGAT
Method in brief: as §1

[5] = target: T3, CD16a158V (Homo sapiens, UniProt P08637, F176V); assay: as above; assay type: binding; conditions: three replicate values per compound
T3 sequence (P08637 17-208 F176V): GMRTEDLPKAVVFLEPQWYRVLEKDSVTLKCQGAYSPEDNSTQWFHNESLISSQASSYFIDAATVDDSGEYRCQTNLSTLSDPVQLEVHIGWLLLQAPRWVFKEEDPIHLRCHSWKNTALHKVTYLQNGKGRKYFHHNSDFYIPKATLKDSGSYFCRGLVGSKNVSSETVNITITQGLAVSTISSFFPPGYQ
Method in brief: as §1

[6] = test system: CD32a-R167; assay: as above; assay type: binding; conditions: three replicate values per compound
Method in brief: as §1

[7] = target: T4, CD32a H167 (Homo sapiens, UniProt P12318); assay: as above; assay type: binding; conditions: three replicate values per compound
T4 sequence (P12318 36-218 limits assumed): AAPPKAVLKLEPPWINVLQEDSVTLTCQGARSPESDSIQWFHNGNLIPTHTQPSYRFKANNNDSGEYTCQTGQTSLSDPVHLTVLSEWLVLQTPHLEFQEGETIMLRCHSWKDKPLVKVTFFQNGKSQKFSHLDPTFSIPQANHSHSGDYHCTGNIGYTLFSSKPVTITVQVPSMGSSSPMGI
Method in brief: as §1

[8] = target: T5, CD32b (Homo sapiens, UniProt P31994); assay: as above; assay type: binding; conditions: three replicate values per compound
T5 sequence (P31994 43-310): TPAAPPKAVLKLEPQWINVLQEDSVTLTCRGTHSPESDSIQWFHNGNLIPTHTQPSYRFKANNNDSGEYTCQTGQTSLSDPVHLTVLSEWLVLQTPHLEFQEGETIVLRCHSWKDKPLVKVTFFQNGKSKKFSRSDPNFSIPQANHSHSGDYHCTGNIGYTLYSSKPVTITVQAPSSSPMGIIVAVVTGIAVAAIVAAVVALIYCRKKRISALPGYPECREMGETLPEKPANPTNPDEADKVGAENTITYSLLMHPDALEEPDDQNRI
Method in brief: as §1

[9] = target: T3, CD16a158V; assay: Biotinylated Ligand ELISA Assay; assay type: binding; conditions: Biotinylated CD16a protein at 10 nM
Method in brief: (§2)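 Neutravidin-coated plates, BSA-blocked, loaded with biotinylated ligands 1 h at 25° C., free sites blocked with 100 μM biotin. Bound protein detected with streptavidin-HRP 1 h at 25° C. and chemiluminescent substrate for 5 min; luminescence read.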

[10] = target: T1, CD16a158F; assay: Biotinylated Ligand ELISA Assay; assay type: binding; parameters: purchased Acro Biosystems CDA-H82E8; conditions: Biotinylated CD16a protein at 10 nM
Method in brief: as §2

[11] = Biotin ELISA, No Protein (Example 55); assay type: binding; conditions: three replicate values per compound
Method in brief: as §1

[12] = target: T1, CD16a158F; assay: CD16a-MATE ELISA; assay type: binding; parameters: purchased Acro Biosystems CDA-H82E8; conditions: Carbohydrate Conjugated MATEs; relative to Rituximab; Antibodies tested at 2 ug/mL
[13] = test system: CD16a158V; assay: CD16a-MATE ELISA; assay type: binding; conditions: Carbohydrate Conjugated MATEs; relative to Rituximab; Antibodies tested at 2 ug/mL
[14] = target: T1, CD16a158F; assay: MATE ELISA, interaction with various receptors (Example 55); assay type: binding; conditions: Table 11; three replicate values
Experimental: (§3) Coat ELISA plates (Costar 3922) using Neutravidin (Thermo 31000) at 5 μg/ml in PBS (100 μl/well) for 1 hour at 37° C. Plates were washed 4 times with PBST (PBS, 0.05% Tween 20-200 μl, 1 minute/wash) then blocked using 200 μl 5% bovine serum albumin (BSA, Heat Shock, Fraction V-American Bio AB01088-00100) in PBST for 2 hours at 25° C. with moderate shaking. BSA was removed and plates were washed. […] Protein was removed and plates were washed. MATE labeled antibodies diluted to 1 μg/ml in PBSTB (100 μl/well) were added and incubated for 1 hour at 25° C. with gentle shaking. Wash plates. HRP labeled Mouse Anti-Human IgG, F(ab′)2 (Jackson Immuno Research 209-035-097) diluted 1:2500 in PBSTB was added (100 μl/well) and incubated for 1 hour at 25° C. with gentle shaking. Wash plates. Substrate (Super Signal ELISA Pico Chemiluminescent Substrate-Thermo 37069) was added (100 μl/well) and plates were incubated for 5 minutes at 25° C. with gentle shaking. Luminescence was then measured on the Biotek Synergy H1 microplate reader.
(§4) In some embodiments, “stock” is antibody only, and “control” is an antibody that went through the same procedure except using DMSO only as opposed to a compound. When contacted with targeting moieties such as antibodies in the Examples, compounds, e.g., I-95, I-96, etc. can react through their reactive groups
(§5) [drawing 887] with reactive groups of targeting moieties (e.g., —NH2) to form conjugates by forming amide groups (—C(O)NH—).

[15] = target: T2, CD3ed; assay: as above; assay type: binding; conditions: Table 11; three replicate values
Experimental: as §3, §4, §5

[16] = test system: CD16a 158V; assay: as above; assay type: binding; conditions: Table 11; three replicate values
Experimental: as §3, §4, §5

[17] = target: CD38 (Homo sapiens, UniProt P28907); assay: as above; assay type: binding; conditions: Table 11; three replicate values
Experimental: as §3, §4, §5

[18] = test system: CD32a-R167; assay: as above; assay type: binding; conditions: Table 11; three replicate values
Experimental: as §3, §4, §5

[19] = target: T4, CD32a H167; assay: as above; assay type: binding; conditions: Table 11; three replicate values
Experimental: as §3, §4, §5

[20] = target: T5, CD32b; assay: as above; assay type: binding; conditions: Table 11; three replicate values
Experimental: as §3, §4, §5

[21] = target: CD16b (Homo sapiens, UniProt O75015); assay: as above; assay type: binding; conditions: Table 11; three replicate values
CD16b, sequence (O75015 17-200): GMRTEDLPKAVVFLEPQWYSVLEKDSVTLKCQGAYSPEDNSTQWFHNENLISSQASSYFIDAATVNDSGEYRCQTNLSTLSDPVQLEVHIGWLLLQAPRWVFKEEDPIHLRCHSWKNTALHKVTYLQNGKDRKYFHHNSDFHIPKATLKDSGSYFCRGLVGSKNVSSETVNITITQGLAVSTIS
Experimental: as §3, §4, §5

[22] = test system: primary monocytes; assay: ADCP assay using fresh primary monocytes; assay type: cell-based, human; conditions: beads loaded with test compound at 50 uM; 37C for 18 hrs
Experimental: (§6) Biotinylated fluorescent beads (Invitrogen, cat #P35372) were thoroughly mixed by vortexing for 1 min. Ten microliters of supplied bead suspension per treatment type were dispensed in Eppendorf tubes, and washed with 1 ml PBS […], then re-suspended in 500 uL of 1% BSA in PBS. Test compounds were added to bead suspensions to a final concentration of 50 uM, and biotinylated human IgG whole molecule (Rockland 009-0602) final concentration of 20 ug/mL.
(§7) Tubes were incubated at room temperature for 1 hr on a rocking platform.
(§8) Following incubation, beads were pelleted in a microcentrifuge at 12,000 g for 5 minutes at room temperature. Supernatants were carefully aspirated and beads were washed 5 times by resuspending in 1 ml of PBS 1% BSA, and centrifuging as described above. Finally, beads were resuspended in 500 ul of PBS 1% BSA and used in ADCP assay.
PBMC, freshly isolated from whole blood (Bioreclamation IVT0) using Ficoll-Paque density centrifugation were resuspended in serum-free, supplemented RPMI at 2×10^6 cells/mL.
Ten milliliters of the resulting cell suspension was seeded into 75-cm^2 tissue culture flask (Denville Scientific TC9341) and incubated 2-3 hr at 37° C. 5% CO2 to allow cell adhesion. Following incubation, media was decanted and surface of the flask was carefully washed twice, each time with 10 ml serum-free, supplemented RPMI to remove any residual non-adherent cells. To remove adherent cells, 10 mL of ice-cold 2.5 mM EDTA/PBS solution was added for 10 min on ice. Cells were transferred to a 15-ml conical tube and centrifuge 10 min at 300×g, room temperature, to remove the EDTA/PBS solution. Monocytes were then resuspended in RPMI 10% FCS at 5×10^5 cells/mL to be used in ADCP assay. Monocyte purity was assessed by staining cells with antibodies to human CD3 FITC (Biolegend 300306), CD19 PeCy7 (Biolegend 302216), CD14 BV421 (BD Biosciences, 565283), and CD16 (Biolegend 302046).
(§9) Monocytes or THP-1 cells (TIB-202 ATCC) were seeded into 96 well round bottom 96 well plates at the density of 10^5 cells per well in 200 ul, and 10 uL of fluorescent bead suspension prepared as described above was added to each well. Well contents were mixed by pipetting up and down using a multichannel pipet, and plates were incubated at 37C for 18 hrs. After incubation, well contents were transferred into flat bottom black 96 well plates (Costar #3358) and centrifuged for 2 minutes at 300 g to allow for better visualization of the cells. Images were taken using Zoe fluorescent cell imager (Biorad).

[23] = test system: CD16a negative THP1 cells; assay: ADCP assay using THP-1 cells; assay type: cell-based; conditions: beads loaded with test compound at 50 uM; 37C for 18 hrs
Experimental: as §6, §7, §8, §9

T1 sequence (P08637 17-208 limits assumed): as the sequence (P08637 17-208 F176V) above, with V160F counted along it

Kd [1]: 0.5 to 1 µM
Biotin ELISA Results CD16a-158F [2]: 1915 and 592 and 1294
Biotin ELISA Results CD3ed [3]: 2134 and 3894 and 2741
Biotin ELISA Results CD64 [4]: 68732 and 70002 and 48114
Biotin ELISA Results CD16a-158V [5]: 2241 and 1940 and 2108
Biotin ELISA Results CD32a-R167 [6]: 4134 and 3245 and 4916
Biotin ELISA Results CD32a-H167 [7]: 3965 and 4173 and 4715
Biotin ELISA Results CD32b [8]: 3983 and 3476 and 6119
Compound: O=C(CCCC[C@@H]1SC[C@@H]2NC(=O)N[C@@H]21)NCCOCCOCCOCCOCCOCCOCCOCCOCCn1cc(-c2ccc(NC(=O)C3CC(=O)N(c4cc(F)ccc4F)C3)cc2)nn1 (some centres unmarked) [Compound I-31]
Biotinylated Ligand ELISA-CD16a158V Binding (RLU) [9]: C (a relative luminescence value (RLU) of 1,000-10,000)
Biotinylated Ligand ELISA-CD16a158F Binding (RLU) [10]: C (a relative luminescence value (RLU) of 1,000-10,000)
Biotin ELISA Results No Protein [11]: 2129 and 3223 and 1542

Compound: Rituximab (UDP-GalNAz labeled)
CD16a158F Normalized* Response (%) [12]: C (an ELISA result of 15-25% relative to Rituximab)
CD16a158V Normalized* Response (%) [13]: C (an ELISA result of 15-25% relative to Rituximab)

MATE ELISA Results CD16a 158F [14]: 82022 and 81780 and 84907
MATE ELISA Results CD3ed [15]: 219 and 257 and 505
MATE ELISA Results CD16a 158V [16]: 1407940 and 1365053 and 1337882
MATE ELISA Results CD38 [17]: 2893900 and 2774268 and 2739576
MATE ELISA Results CD32a R157 [18]: 125444 and 122409 and 116704
MATE ELISA Results CD32a H167 [19]: 485766 and 481839 and 470053
MATE ELISA Results CD32b [20]: 9479 and 9358 and 9228
MATE ELISA Results CD16b [21]: 3125 and 3086 and 3079
Compound: Daratumumab Control: "'control' is an antibody that went through the same procedure except using DMSO only as opposed to a compound"

Kd [1]: 0.1 to 0.5 µM
Compound: O=C(CCCC[C@@H]1SC[C@@H]2NC(=O)N[C@@H]21)NCCOCCOCCOCCOCCOCCOCCOCCOCCn1cc(-c2cccc(NC(=O)N3CCC4(CC3)NC(=O)N(c3ccccc3)C4=O)c2)nn1 [Compound I-27]
ACDP (primary monocytes)-normalized phagocytosis score [22]: A (a normalized phagocytosis score of >2.0)
ACDP (CD16a negative THP1 cells)-normalized phagocytosis score [23]: B (a normalized phagocytosis score of 1.5-2.0)
Biotinylated Ligand ELISA-CD16a158V Binding (RLU) [9]: B (a relative luminescence value (RLU) of 10,000-100,000)
Biotinylated Ligand ELISA-CD16a158F Binding (RLU) [10]: B (a relative luminescence value (RLU) of 10,000-100,000)
